In experiment [1] the test system is KAI1 promoter. The experiment is described as follows: KAI1 promoter luciferase reporter assay in transfected Caco2 cells. It counts as cell-based, human. As to conditions: Homo sapiens, Caco-2, 16 h, 1 μM compound, 16 hours, transfected Caco2 cells, luciferase activity relative to DMSO control (=1); read-out: Relative KAI promoter activity. Here is the method:
Experiments were conducted to evaluate the metastasis-related promoter activity-increasing effects of the compounds according to the present invention. Specifically, the KAI1 promoter reporter vector was used. In this case, the pRL-TK vector, a vector expressing renilla luciferase, was used as an internal control indicating the transfection efficiency in each transfected well.
First, 24 hours before transfection, 2×10^6 human colon cancer cell line, Caco2) cells were cultured in 10 ml of DMEM containing 10% FBS and 1% penicillin/streptomycin on a 100-mm-diameter plate, and then transformed with 5 μg of a pRL-TK vector mixture containing a transfection reagent and the KAI1 promoter, and then cultured in a 5% CO2 incubator at 37° C. for 48 hours. Thereafter, the adherent cells were detached using trypsin and counted using a hemacytometer, and then 5×10^3 transfected Caco2 cells in 100 μl of DMEM containing 10% FBS and 1% penicillin/streptomycin were seeded into each well of a 96-well plate and cultured in a 5% CO2 incubator at 37° C. for 24 hours. Next, 1 μM of each of the 305 compounds prepared in Examples 1 to 305 was added to each well, and after 16 hours, 100 μl of a lysis buffer for analysis containing a luciferase substrate was added, and the cells were lysed with stirring for 20 minutes. After completion of lysis, the cells were measured for luciferase activity using a luciferase reporter assay system (Promega, USA). […] In addition, data were analyzed at a significance level of p<0.05 by one-way ANOVA (Tukey's HSD), and SPSS 17.0 (Chicago, USA) statistical program was used. In Table 14 to 20, PHA is the PHA-665752, and KIT is KITENIN.
A general note: In a reporter assay the amount or activity of a reporter protein is the signal.

The subject of experiment [2] is invasion of colorectal cancer cells. The experiment can be described thus: In vivo relative invation (invasion; EV and KITENIN controls, no method described). As to conditions: relative to EV (=1); KIT = KITENIN.

“And” between values parts separate entries of the source, which are not always exact repeats. Identical values can stand only once.

In the case of `CN(Cc1ccccc1)Cc1ccc(C(=O)NCC(=O)c2ccccc2)cc1` [Example 266, 4-((benzyl(methyl)amino)methyl)-N-(2-oxo-2-phenylethyl)benzamide], in experiment [1], the fold induction at 1 µM was determined as 2.21. For the same molecule, the “In vivo relative invation” value in experiment [2] was determined as 1.401.

Consider `COc1ccc(NC(=O)COc2ccccc2C(=O)NCC(=O)c2ccccc2)cc1F` [Example 207, 2-(2-((3-fluoro-4-methoxyphenyl)amino)-2-oxoethoxy)-N-(2-oxo-2-phenylethyl)benzamide], for which the fold induction at 1 µM in experiment [1] came out at 1.43. In addition, in experiment [2], the “In vivo relative invation” value was determined as 1.036.

Consider `O=C(CNS(=O)(=O)c1cccc([N+](=O)[O-])c1)c1ccccc1` [Example 21, 3-nitro-N-(2-oxo-2-phenylethyl)benzenesulfonamide], for which the fold induction at 1 µM in experiment [1] worked out at 0.99. For the same molecule, the “In vivo relative invation” value in experiment [2] is 1.099.

Regarding `O=C(CNC(=O)c1cccc([N+](=O)[O-])c1)c1ccc(Cl)cc1` [Example 77, N-(2-(4-chlorophenyl)-2-oxoethyl)-3-nitrobenzamide], the fold induction at 1 µM in experiment [1] is 0.92. For the same molecule, the “In vivo relative invation” value in experiment [2] is 1.274.

For the molecule `O=C(CNC(=O)c1ccc(-c2ccccc2)cc1)c1ccccc1` [Example 43, N-(2-oxo-2-phenylethyl)-[1,1′-biphenyl]-4-carboxamide], in experiment [1], the fold induction at 1 µM worked out at 1.91. Besides, the “In vivo relative invation” value in experiment [2] is 0.9774.

With `O=C(CNC(=O)c1ccccc1OC1CCN(C(=O)c2ccc(F)cc2F)CC1)c1ccccc1` [Example 177, 2-((1-(2,4-difluorobenzoyl)piperidin-4-yl)oxy)-N-(2-oxo-2-phenylethyl)benzamide], in experiment [1], the fold induction at 1 µM came to 0.95. Moreover, the “In vivo relative invation” value in experiment [2] worked out at 1.159.

Turning to `Cc1ccccc1C(=O)N1CCC(Oc2ccccc2C(=O)NCC(=O)c2ccccc2)CC1` [Example 161, 2-((1-(2-methylbenzoyl)piperidin-4-yl)oxy)-N-(2-oxo-2-phenylethyl)benzamide], the fold induction at 1 µM in experiment [1] was found to be 0.95. Also, the “In vivo relative invation” value in experiment [2] turned out to be 1.121.

Regarding `CCCCC(=O)NCC(=O)c1ccccc1` [Example 20, N-(2-oxo-2-phenylethyl)pentanamide], the fold induction at 1 µM in experiment [1] stood at 0.99. The “In vivo relative invation” value in experiment [2] is reported as 1.217.

`CCCCC(=O)NCC(=O)c1ccc(N2CCOCC2)cc1` [Example 145, N-(2-(4-morpholinophenyl)-2-oxoethyl)pentanamide]: the fold induction at 1 µM in experiment [1] came out at 1.1. Besides, the “In vivo relative invation” value in experiment [2] was found to be 1.433.

`CCCCCN(CCCCC)Cc1cccc(C(=O)NCC(=O)c2ccccc2)c1` [Example 250, 3-((dipentylamino)methyl)-N-(2-oxo-2-phenylethyl)benzamide]: the fold induction at 1 µM in experiment [1] amounted to 1.25. In addition, the “In vivo relative invation” value in experiment [2] is on record as 0.9781.

In the case of `COc1cccc(C(=O)CNC(=O)c2cccc(CN3CCN(CCO)CC3)c2)c1` [Example 292, 3-((4-(2-hydroxyethyl)piperazin-1-yl)methyl)-N-(2-(3-methoxyphenyl)-2-oxoethyl)benzamide], the fold induction at 1 µM in experiment [1] was found to be 1.45. Further, the “In vivo relative invation” value in experiment [2] was 1.238.

With `O=C(CNC(=O)c1cccc(Cl)c1Cl)c1ccccc1` [Example 37, 2,3-dichloro-N-(2-oxo-2-phenylethyl)benzamide], the fold induction at 1 µM in experiment [1] was 1.17. In addition, the “In vivo relative invation” value in experiment [2] amounted to 0.9648.

Turning to `Cc1cc(C)cc(C(=O)NCC(=O)c2ccccc2)c1` [Example 40, 3,5=dimethyl-N-(2-oxo-2-phenylethyl)benzamide], the fold induction at 1 µM in experiment [1] was 1. The “In vivo relative invation” value in experiment [2] came to 1.173.

Consider `O=C(CNC(=O)c1ccccc1OC1CCN(C(=O)c2ccc(F)cc2)CC1)c1ccccc1` [Example 154, 2-((1-(4-fluorobenzoyl)piperidin-4-yl)oxy)-N-(2-oxo-2-phenylethyl)benzamide], for which, in experiment [1], the fold induction at 1 µM worked out at 1.05. Further, in experiment [2], the “In vivo relative invation” value turned out to be 1.173.

For the molecule `CCC(=O)N1CCC(Oc2ccccc2C(=O)NCC(=O)c2ccccc2)CC1` [Example 164, N-(2-oxo-2-phenylethyl)-2-((1-propionylpiperidin-4-yl)oxy)benzamide], the fold induction at 1 µM in experiment [1] worked out at 0.98. For the same molecule, the “In vivo relative invation” value in experiment [2] is 1.088.

Consider `CN(C)c1ccc(C(=O)CNC(=O)c2ccccc2Cl)cc1` [Example 93, 2-chloro-N-(2-(4-(dimethylamino)phenyl)-2-oxoethyl)benzamide], for which the fold induction at 1 µM in experiment [1] is 2.48. Also, the “In vivo relative invation” value in experiment [2] was 1.091.

With `O=C(CNC(=O)c1ccc(F)cc1)c1ccc(Cl)cc1` [Example 45, N-(2-(4-chlorophenyl)-2-oxoethyl)-4-fluorobenzamide], in experiment [1], the fold induction at 1 µM stood at 0.84. In experiment [2], the “In vivo relative invation” value is 1.476.

Consider `CN(C)Cc1ccccc1C(=O)NCC(=O)c1ccccc1` [Example 296, 2-((dimethylamino)methyl)-N-(2-oxo-2-phenylethyl)benzamide], for which the fold induction at 1 µM in experiment [1] worked out at 1.53. The “In vivo relative invation” value in experiment [2] was 1.026.

Take `COc1cccc(C(=O)CNC(=O)c2cccc(CN(C)Cc3ccccc3)c2)c1` [Example 286, 3-((benzyl (methyl)amino)methyl)-N-(2-(3-methoxyphenyl)-2-oxoethyl)benzamide]: the fold induction at 1 µM in experiment [1] came out at 1.43. In experiment [2], the “In vivo relative invation” value turned out to be 1.233.

With `CCCc1ccccc1NC(=O)COc1ccccc1C(=O)NCC(=O)c1ccccc1` [Example 210, 2-(2-oxo-2-((2-propylphenyl)amino)ethoxy)-N-(2-oxo-2-phenylethyl)benzamide], in experiment [1], the fold induction at 1 µM came out at 1.03. In experiment [2], the “In vivo relative invation” value is 0.9274.

`O=C(CNC(=O)c1ccccc1OC1CCN(C(=O)c2ccc(Br)cc2)CC1)c1ccccc1` [Example 181, 2-((1-(4-bromobenzoyl)piperidin-4-yl)oxy)-N-(2-oxo-2-phenylethyl)benzamide]: in experiment [1], the fold induction at 1 µM is 1.06. Also, the “In vivo relative invation” value in experiment [2] came to 1.194.

Turning to `O=C(CNC(=O)c1ccccc1OC1CCN(C(=O)N2CCOCC2)CC1)c1ccccc1` [Example 171, 2-((1-(morpholine-4-carbonyl)piperidin-4-yl)oxy)-N-(2-oxo-2-phenylethyl)benzamide], the fold induction at 1 µM in experiment [1] was 1.07. Besides, the “In vivo relative invation” value in experiment [2] stood at 1.191.

Consider `CCCCN(C)Cc1ccc(C(=O)NCC(=O)c2ccccc2)cc1` [Example 271, 4-((butyl (methyl)amino)methyl)-N-(2-oxo-2-phenylethyl)benzamide], for which the fold induction at 1 µM in experiment [1] came to 1.31. In addition, the “In vivo relative invation” value in experiment [2] stood at 1.228.

Turning to `O=C(CNC(=O)c1ccccc1OC1CCN(C(=O)c2ccc(C(F)(F)F)cc2)CC1)c1ccccc1` [Example 193, N-(2-oxo-2-phenylethyl)-2-((1-(4-(trifluoromethyl)benzoyl)piperidin-4-yl)oxy)benzamide], the fold induction at 1 µM in experiment [1] was 0.82. The “In vivo relative invation” value in experiment [2] came out at 1.214.

On to `CC(Oc1ccccc1)C(=O)NCC(=O)c1cccnc1` (centres unmarked) [Example 131, N-(2-oxo-2-(pyridin-3-yl)ethyl)-2-phenoxypropanamide], for which the fold induction at 1 µM in experiment [1] came to 1.19. Moreover, in experiment [2], the “In vivo relative invation” value was 1.293.

Regarding `CCOC(=O)N1CCN(Cc2ccccc2C(=O)NCC(=O)c2ccccc2)CC1` [Example 305, ethyl 4-(2-((2-oxo-2-phenylethyl)carbamoyl)benzyl)piperazine-1-carboxylate], the fold induction at 1 µM in experiment [1] came to 1.14. Further, in experiment [2], the “In vivo relative invation” value turned out to be 1.186.

As for `O=C(CNC(=O)c1ccc(C(F)(F)F)cc1)c1ccccc1` [Example 32, N-(2-oxo-2-phenylethyl)-4-(trifluoromethyl)benzamide], the fold induction at 1 µM in experiment [1] stood at 1.02. The “In vivo relative invation” value in experiment [2] is given as 1.383.

Turning to `O=C(COc1ccccc1C(=O)NCC(=O)c1ccccc1)Nc1ccc2c(c1)OCCO2` [Example 218, 2-(2-((2,3-dihydrobenzo[b] [1, 4]dioxin-6-yl)amino)-2-oxoethoxy)-N-(2-oxo-2-phenylethyl)benzamide], the fold induction at 1 µM in experiment [1] is 1.33. Moreover, the “In vivo relative invation” value in experiment [2] was 1.169.

On to `O=C(CNC(=O)c1ccccc1OC1CCN(C(=O)c2cc(C(F)(F)F)cc(C(F)(F)F)c2)CC1)c1ccccc1` [Example 190, 2-((1-(3,5-bis(trifluoromethyl)benzoyl)piperidin-4-yl)oxy)-N-(2-oxo-2-phenylethyl)benzamide], for which the fold induction at 1 µM in experiment [1] is 0.83. The “In vivo relative invation” value in experiment [2] came to 1.203.

Turning to `Cc1ccc(S(=O)(=O)NCC(=O)c2ccc(Cl)cc2)cc1` [Example 68, N-(2-(4-chlorophenyl)-2-oxoethyl)-4-methylbenzenesulfonamide], the fold induction at 1 µM in experiment [1] was determined as 0.88. Besides, in experiment [2], the “In vivo relative invation” value is on record as 1.125.

Consider `Cc1[nH]c(/C=C2\C(=O)Nc3ccc(S(=O)(=O)Cc4c(Cl)cccc4Cl)cc32)c(C)c1C(=O)N1CCC[C@@H]1CN1CCCC1` [PHA, PHA-665752, reference compound], for which the fold induction at 1 µM in experiment [1] was 1.43.

In the case of KITENIN, the “In vivo relative invation” value in experiment [2] is 1.419 and 1.156 and 1.58 and 1.288 and 1.205 and 1.369.

(Values after patent US20230150924A1, “NOVEL COMPOUND HAVING CANCER METASTASIS INHIBITORY ACTIVITY, PREPARATION METHOD THEREFOR, AND PHARMACEUTICAL COMPOSITION FOR INHIBITING CANCER METASTASIS AND INVASION OR TREATING COLORECTAL CANCER, COMPRISING COMPOUND” (CELLGENTEK CO., LTD., priority 2019, published 2023).)
